The subject of assay [1] is E. coli K-12 BW25113 carrying single mutations. Nature of the assay: MIC change in single-mutation strains (basS L194R, mlaD a342del, waaY M1†). In kind it is cell-based, Escherichia coli.
A further assay concerns S. enterica LT2. Nature of the assay: Laboratory evolution of resistance, MIC fold change of adapted lines. The conditions noted are these: Salmonella enterica serovar Typhimurium LT2; parallel line 1 of 10. In kind it is cell-based, Salmonella enterica subsp. enterica serovar Typhimurium. The source says:
The tested pathogens initially sensitive to the AMPs and the antibiotics included Escherichia coli (ATCC® 25922™) (abbreviated as E. coli ATCC 25922), Salmonella enterica subsp. enterica serovar Typhimurium LT2 (abbreviated as S. enterica LT2), Klebsiella pneumoniae subsp. pneumoniae (Schroeter) Trevisan (ATCC® 10031™) (abbreviated as K. pneumoniae ATCC 10031) and Acinetobacter baumannii Bouvet and Grimont (ATCC® 17978™) (abbreviated as A. baumannii ATCC 17978).
The evolutionary protocol was designed to avoid population extinction and to ensure that populations with the highest level of resistance were propagated further. Starting with a subinhibitory drug concentration (Supplementary Data 8), resulting in ~50% growth inhibition, 10 parallel populations per drug were allowed to grow in Minimal Salts medium for 72 h and 300 r.p.m. […] Prior to each transfer, cell growth was monitored by measuring the optical density at 600 nm (OD600 value, Biotek Synergy 2 microplate reader). […]
MICs were determined using a standard serial broth dilution technique. […] Cell growth was monitored by measuring the optical density (OD600 value, Biotek Synergy 2 microplate reader was used for this purpose). […] Relative MIC was calculated as follows: MICrelative = MICevolved/MICcontrol.

The test system of another assay is E.coli K-12 BW25113. In kind it is cell-based, Escherichia coli. As to conditions: for MIC (freshly prepared AMP): plates inoculated immediately; for MIC (pre-incubated AMP): plates pre-incubated 72 hours before inoculation. As to the method: (§1) MICs were determined using a standard serial broth dilution technique. Briefly, 11-step serial dilutions were prepared in 96-well microtiter plates with three replicates per strain and antimicrobial compound. Each experiment was repeated at least twice. 5 × 10^5 cells/mL were inoculated into each well, and the plates were incubated at 30 °C in case of E. coli K-12 BW25113, and its antibiotic and AMP-adapted lines, or 37 °C in case of the other bacterial species. Plates were shaken at 300 r.p.m. during incubation for 24 and 18 h, respectively. Cell growth was monitored by measuring the optical density (OD600 value, Biotek Synergy 2 microplate reader was used for this purpose). […] Relative MIC was calculated as follows: MICrelative = MICevolved/MICcontrol.
Supplementary Table 7- Effect of incubation time on the minimum inhibitory concentration (MIC) of AMPs. We tested whether the prolonged incubation time can affect the MIC of AMPs. To test this, two sets of AMP containing MIC plates were prepared in parallel. The first set was immediately inoculated with E.coli K-12 BW25113, while the second set was pre-incubated 72 hours before inoculation with the […]
observed in the MIC between freshly prepared and pre-incubated plates. […]

For assay [2], the system named is Shigella flexneri HNCMB 20018. The assay is classed as cell-based. The conditions noted are these: broth dilution, 37 °C, 18 h. As to the method:
(§2) Unless otherwise indicated, we used E. coli K-12 BW25113 in all high-throughput experiments. To investigate the impact of mutation rate on evolution of AMP resistance, we initiated laboratory evolution with a mutator strain E. coli mutD5 that carries mutations in the dnaQ gene (L73W and A164V).
as §1
On the technique in general: Dilution methods test growth across graded concentrations, often in twofold steps.

In assay [3] the test system is Salmonella enteritidis HNCMB 10092. In kind it is cell-based. The conditions noted are these: broth dilution, 37 °C, 18 h. As to the method:
as §2, §1

Assay [4] concerns Staphylococcus aureus subsp. aureus ATCC 25923. In kind it is cell-based. As to conditions: broth dilution, 37 °C, 18 h. The procedure:
as §2, §1

Assay [5] has as its system Escherichia coli ATCC BAA 2469. In kind it is cell-based. The conditions noted are these: broth dilution, 37 °C, 18 h. The procedure: as §2, §1
The test system of assay [6] is Staphylococcus aureus subsp. aureus ATCC 29213. The assay is classed as cell-based. The conditions noted are these: broth dilution, 37 °C, 18 h. As to the method:
as §2, §1

Assay [7] concerns Enterococcus faecium ATCC 700221. The assay is classed as cell-based. As to conditions: broth dilution, 37 °C, 18 h. The procedure:
as §2, §1

Assay [8] has as its system Klebsiella pneumoniae subsp. pneumoniae ATCC 700603. The assay is classed as cell-based. As to conditions: broth dilution, 37 °C, 18 h. As to the method: as §2, §1
The test system of assay [9] is Klebsiella pneumoniae NCTC 13440. The assay is classed as cell-based. The conditions noted are these: broth dilution, 37 °C, 18 h. The procedure:
as §2, §1

Assay [10] concerns Shigella sonnei HNCMB 25021. The assay is classed as cell-based. As to conditions: broth dilution, 37 °C, 18 h. The procedure:
as §2, §1

The test system of assay [11] is Escherichia coli ATCC 35218. In kind it is cell-based. The conditions noted are these: broth dilution, 37 °C, 18 h. As to the method:
as §2, §1

In assay [12] the test system is Pseudomonas aeruginosa ATCC 27853. The assay is classed as cell-based. The conditions noted are these: broth dilution, 37 °C, 18 h. As to the method:
as §2, §1

Assay [13] relates to Enterobacter cloacae subsp. cloacae ATCC 13047. In kind it is cell-based. As to conditions: broth dilution, 37 °C, 18 h. As to the method: as §2, §1
Assay [14] concerns Streptococcus pyogenes ATCC 19653. In kind it is cell-based. The conditions noted are these: broth dilution, 37 °C, 18 h. As to the method: as §2, §1
Assay [15] has as its system Methicillin-resistant Staphylococcus aureus subsp. aureus ATCC 43300. In kind it is cell-based. The conditions noted are these: broth dilution, 37 °C, 18 h. As to the method:
as §2, §1

Assay [16] concerns Escherichia coli ATCC BAA 2340. In kind it is cell-based. As to conditions: broth dilution, 37 °C, 18 h. As to the method: as §2, §1
For assay [17], the system named is Escherichia coli NCTC 13351. In kind it is cell-based. As to conditions: broth dilution, 37 °C, 18 h. As to the method:
as §2, §1

The subject of a further assay is K. pneumoniae ATCC 10031. In kind it is cell-based, Klebsiella pneumoniae. The conditions noted are these: Klebsiella pneumoniae ATCC 10031; broth dilution, 37 °C, 18 h. The procedure: as §2, §1
A further assay deals with A. baumannii ATCC 17978. The assay is classed as cell-based, Acinetobacter baumannii. As to conditions: Acinetobacter baumannii ATCC 17978; broth dilution, 37 °C, 18 h. As to the method: as §2, §1
Setting [18] is: time allowed for bacterial growth 24 hours.
The mark [19] stands for this setting: time allowed for bacterial growth 48 hours.
Setting [20] is: time allowed for bacterial growth 72 hours.

Where two headings read alike, the source gives them in different places. Ends that are not written are not given here. Peptide text beside a SMILES is read from it.

As for `CC[C@H](C)[C@@H]1NC(=O)CNC(=O)[C@H](CCCNC(=N)N)NC(=O)[C@H](Cc2ccc(O)cc2)NC(=O)[C@@H]2CSSC[C@H](NC1=O)C(=O)N[C@@H](Cc1ccc(O)cc1)C(=O)N[C@@H](CCCNC(=N)N)C(=O)N[C@@H](CCCCN)C(=O)N[C@H](C(=O)N[C@@H](CCCNC(=N)N)C(N)=O)CSSC[C@H](NC(=O)[C@H](Cc1c[nH]c3ccccc13)NC(=O)[C@@H](N)CCCNC(=N)N)C(=O)N[C@@H](Cc1ccccc1)C(=O)N[C@@H](CCCNC(=N)N)C(=O)N[C@@H](C(C)C)C(=O)N2` [TPII, tachyplesin II] (HELM PEPTIDE1{R.W.C.F.R.V.C.Y.R.G.I.C.Y.R.K.C.R.[am]}$PEPTIDE1,PEPTIDE1,3:R3-16:R3|PEPTIDE1,PEPTIDE1,7:R3-12:R3$$$V2.0; N-terminus and C-terminus assumed; bridges inferred), the “resistance conferred by single mutations basS L194R, mlaD a342del, waaY M1† (in words)” value in assay [1] (mutations inserted individually into E. coli K-12 BW25113) is listed as “no resistance”. The “Relative MIC compared to the wild-type” value in [1] (strain with reinserted mutation basS L194R (CTG→CGG)), in assay [1] (strain with reinserted mutation mlaD a342del) and in assay [1] (strain with reinserted mutation waaY M1† (ATG→CTG)) was 1.0 throughout. The “MIC fold change following 20 transfers” value with S. enterica LT2 was determined as 1.0 fold. Further, the “MIC (freshly prepared AMP)” value with E.coli K-12 BW25113 (setting [18]), in the assay on E.coli K-12 BW25113 (setting [19]) and in the assay on E.coli K-12 BW25113 (setting [20]) was 5 µg/mL throughout. Further, the “MIC (pre-incubated AMP)” value in the assay on E.coli K-12 BW25113 (setting [18]), with E.coli K-12 BW25113 (setting [19]) and with E.coli K-12 BW25113 (setting [20]) was 6 µg/mL in each case.

What is called MIC is the lowest concentration that inhibits growth of the organism. “SWLSKTAKKLENSAKKRISEGIAIAIQGGPR [CP1, Cecropin P1]”: the MIC in assay [2] is 1.2 µM; in assay [3] it was 1.2 µM; in assay [4], > 9.6 µM; in assay [5], 1.2 µM; in assay [6], > 9.6 µM; in assay [7], > 9.6 µM. For the same compound, the MIC in assay [8] was 2.4 µM; in assay [9] it was 1.2 µM; in [10], 0.6 to 1.2 µM; in assay [11], 1.2 µM; in assay [12], 2.4 µM; in assay [13], > 9.6 µM. For the same compound, the MIC in assay [14] is > 9.6 µM; in [15] it was > 9.6 µM; in assay [16], 1.2 µM; in [17] it was 0.6 to 1.2 µM; with K. pneumoniae ATCC 10031 it was 1.2 to 2.4 µM; in the assay with A. baumannii ATCC 17978 it was 0.6 to 1.2 µM.

Source of the values: article PMC6778101 (Nature Communications, 2019).
